Measured values published in PMC10303687 (Protein Science : A Publication of the Protein Society, 2023).
“Also recorded” adds a separate entry of the source. Ends that are not written are not given here.

Assays:
[1] = target: T1, MDM2 D. rerio (SWIB domain) (Danio rerio, UniProt O42354); assay: Stopped-flow binding kinetics (kon, koff; KD = koff/kon); conditions: for kon: MDM2 D. rerio 0.5–2 μM mixed with 1–10 μM peptide, curve fitting error; for kon / koff: pH 7.4; for koff: complex 1 μM:1 μM displaced by 10–20 μM dansylated human p53TAD, SD of two or three replicates
T1 construct: N-terminal fusion: NusA-TEV-His6-PreScission (pSY10) or His6-GST-PreScission (pETM33); made in house; host or cells: Escherichia coli BL21 (DE3) pLys or BL21 (DE3)
T1 sequence (O42354 19-102 limits assumed): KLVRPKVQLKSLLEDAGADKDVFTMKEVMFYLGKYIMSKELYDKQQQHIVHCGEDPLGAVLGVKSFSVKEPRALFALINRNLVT

[2] = target: T1, MDM2 D. rerio (SWIB domain); assay: Fluorescence polarization displacement of FITC-labeled human p53TAD 15–26 (IC50 to KD/Ki); format: binding; conditions: FP displacement; low constant FITC-labeled p53TADHuman and MDM2 D. rerio, displaced by excess peptide; room temperature, pH 7.4; KD calculated from IC50; mean ± SEM
Description: FP can detect weak affinities (K D values in the high μM range), although the accuracy is lower than for the other methods. In FP experiments we observed direct binding using a FITC‐labeled p53TAD peptide and used unlabeled peptides containing the binding motif to displace the labeled one. FP experiments were performed at room temperature using the same buffer as kinetic experiments. […] The polarization was measured at excitation/emission wavelengths of 485/535 nm on a SpectraMax iD5 plate reader. […] Errors were calculated as standard error of mean (SEM) of calculated K D values for the displacer peptides resulting from independent fit of IC50 values for the replicate measurements. […]
Supplementary Excel File 2. […] IC50 values were determined as described in the materials section. The theory behind the conversion of IC50 values to Ki values (=KD) is described in Nikolovska-Coleska, et al., Development and optimization of a binding assay for the XIAP BIR3 domain using fluorescence polarization. […]

[3] = target: T2, MDM2 H. sapiens (SWIB domain) (Homo sapiens, UniProt Q00987); assay: Stopped-flow binding kinetics (kon, koff; KD = koff/kon); conditions: 10°C; for koff: pre-formed complex 1 μM:1 μM displaced by 10–20 μM dansylated human p53TAD, pH 7.4, SD of two or three replicates; for kon: pH 7.4, MDM2 H. sapiens 0.5–2 μM mixed with 1–10 μM p53TAD, kobs vs concentration, pH 7.4, curve fitting error
T2 construct: The reconstructed MDM2 variants used in the present study correspond to residues 17–125 of human MDM2; N-terminal fusion: NusA-TEV-His6-PreScission (pSY10) or His6-GST-PreScission (pETM33); made in house; host or cells: Escherichia coli BL21 (DE3) pLys or BL21 (DE3)
T2 sequence (Q00987 17-125): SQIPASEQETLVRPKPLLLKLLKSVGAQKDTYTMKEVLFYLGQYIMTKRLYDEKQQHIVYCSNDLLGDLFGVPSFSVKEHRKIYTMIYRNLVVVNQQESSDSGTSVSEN

[4] = target: MDM2 T. adhaerens (SWIB domain); assay: Fluorescence polarization displacement of FITC-labeled human p53TAD 15–26 (IC50 to KD/Ki); format: binding, Trichoplax adhaerens; conditions: FP displacement, FITC-labeled p53TAD H. sapiens 15–26 6 or 10 nM and MDM2 T. adhaerens 50 μM constant, dilution series of native p53TAD, room temperature, pH 7.4
Description: FP can detect weak affinities (K D values in the high μM range), although the accuracy is lower than for the other methods. In FP experiments we observed direct binding using a FITC‐labeled p53TAD peptide and used unlabeled peptides containing the binding motif to displace the labeled one. FP experiments were performed at room temperature using the same buffer as kinetic experiments. For saturation experiments the FITC labeled human peptide was held at a constant concentration of 6 or 10 nM and mixed with the 1:1 dilution series of different MDM2 proteins (the highest concentration of proteins were 89, 37, 50, 22, and 7.3 μM for T. adhaerens, M. trossulus, I. scapularis, L. camtschaticum and H. sapiens MDM2, respectively) in black, non‐binding surface, flat bottom 96‐well plates (Corning Life Sciences). The polarization was measured at excitation/emission wavelengths of 485/535 nm on a SpectraMax iD5 plate reader. […] The resulting displacement curve was fit to a sigmoidal dose‐response (variable slope) equation to obtain an IC50 value, which was in turn used to calculate K D values for the competing peptides as described previously(Nikolovska‐Coleska et al., [2004]) (Excel File 2 in Data S1). Errors were calculated as standard error of mean (SEM) of calculated K D values for the displacer peptides resulting from independent fit of IC50 values for the replicate measurements.
Supplementary Excel File 1. Sequences of constructs used in the experiments. The sequence and name for each interaction motif in p53TAD and MDM2 SWIB domain used in binding experiments in the study.
Supplementary Excel File 2. Calculation of Ki from IC50 values. IC50 values were determined as described in the materials section. The theory behind the conversion of IC50 values to Ki values (=KD) is described in Nikolovska-Coleska, et al., Development and optimization of a binding assay for the XIAP BIR3 domain using fluorescence polarization. […]
p53TAD. The posterior probability is shown for each amino acid for each position for the […]
Supplementary Text File 1. Fasta file for p53TAD. […]

Row | Substance | kon [3] | koff ([3]; MDM2 H. sapiens) | other results
1 | Ac-DSQEFAELWEKN (N-terminus assumed) [p53TAD D. rerio ^14–26] |  |  | K D ([1]; MDM2 D. rerio, KD = koff/kon, stopped-flow, 10°C, 20 mM sodium phosphate pH 7.4, 150 mM NaCl, 1 mM TCEP, propagated error): absence of interaction; also recorded: non‐measurable affinity
2 | Ac-EGPTFEHLWSTL [p73TAD D. rerio] |  |  | Kd [1]: 0.12 ± 0.01 µM; kon ([1]; stopped-flow, 10°C): 3.2e+07 ± 1e+06 M⁻¹ s⁻¹; koff ([1]; MDM2 D. rerio, 10°C): 3.7 ± 0.06 s⁻¹
3 | Ac-GQDVLNQLLEML [p63TAD D. rerio] |  |  | Kd [2]: 130 ± 2 µM
4 | Ac-SQDTFSDLWNQL [p53TAD1R ^AltAll] | 2.9e+07 ± 2e+06 M⁻¹ s⁻¹ | 0.7 ± 0.04 s⁻¹ | 
5 | Ac-SQETFDFLWKSL [p53TADBilateria ^AltAll] | 1.5e+07 ± 1e+06 M⁻¹ s⁻¹ | 2.6 ± 0.3 s⁻¹ | 
6 | Ac-SQETFEYLWNTL [p53TAD M. trossulus] |  |  | K D ([3]; MDM2 H. sapiens, KD = koff/kon, Trp fluorescence ex 280 nm/em 330 ± 25 nm, 20 mM sodium phosphate pH 7.4, 150 mM NaCl, 1 mM TCEP, propagated error, 12-mers show non-native high affinity): high affinity
7 | Ac-SQETFNHLWNML [p53TAD1R ^ML] | 1.67e+07 ± 900000 M⁻¹ s⁻¹ | 1.37 ± 0.06 s⁻¹ | 
8 | Ac-SQETFNHLWNTL [p53TADBilateria ^ML] | 1.9e+07 ± 1e+06 M⁻¹ s⁻¹ | 11 ± 2 s⁻¹ | 
9 | Ac-SQETFSDLWNML [p53TADFishes/Tetrapods ^ML] |  |  | kon ([1]; stopped-flow, 10°C): 2.46e+07 ± 800000 M⁻¹ s⁻¹; koff ([1]; MDM2 D. rerio, 10°C): 2.3 ± 0.2 s⁻¹
10 | GPMGMSDEPTLSQLSFSQELSSSWQLMIDEITQGKFNTNEDEGTAIYSYSEQNPDDRYLMRPNEPQYISAGYPDGQVGQLPREFAVNQIPSPRTFSDNVSSSADKAREAYYGQAVNGVSAETSPPLKRDP [full-length p53TAD, residues 1–126 of T. adhaerens p53] |  |  | K D [4]: did not show binding; K D ([4]; listed as full‐length p53TAD): failed to displace; K D ([4]; listed as full‐length p53TAD from T. adhaerens): no binding

Continued, in another order:

Row | kon [3] | Substance | koff ([3]; MDM2 H. sapiens) | other results
11 | 2.73e+07 ± 700000 M⁻¹ s⁻¹ | Ac-SQESFSDLWNLL [p53TADFishes/Tetrapods ^AltAll] | 0.52 ± 0.04 s⁻¹ | 
12 | 4.2e+07 ± 2e+06 M⁻¹ s⁻¹ | Ac-SQETFSDLWNLL [p53TADReptiles/Mammals ^ML] | 0.32 ± 0.04 s⁻¹ | 
13 | 3.8e+07 ± 2e+06 M⁻¹ s⁻¹ | Ac-SQETFSDLWNML [p53TADReptiles/Mammals ^AltAll] | 0.36 ± 0.01 s⁻¹ | 
